For the test, the target named is T1, Catechol O-methyltransferase (Sus scrofa, UniProt Q99028).
T1 sequence (Q99028 whole entry): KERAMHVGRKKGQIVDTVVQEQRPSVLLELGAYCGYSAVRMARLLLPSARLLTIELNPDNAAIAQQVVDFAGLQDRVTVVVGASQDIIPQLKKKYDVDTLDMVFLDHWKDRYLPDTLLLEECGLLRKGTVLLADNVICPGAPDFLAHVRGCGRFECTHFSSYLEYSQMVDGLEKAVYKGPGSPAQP
As to the kind of experiment: Inhibitory activity against catechol O-methyltransferase. The conditions noted are these: read-out: I50.

As to `C[S+](CCCc1c[nH]c2ccccc12)C[C@H]1O[C@@H](n2cnc3c(N)ncnc32)[C@H](O)[C@@H]1O` (some centres not stated), the IC50 was greater than 10 mM.

For `C[S+](CCCCc1c[nH]c2ccccc12)C[C@H]1O[C@@H](n2cnc3c(N)ncnc32)[C@H](O)[C@@H]1O` (some centres not stated), the IC50 was determined as 10 mM.

(Values after ChEMBL document CHEMBL1122373, “Multisubstrate adducts as potential inhibitors of S-adenosylmethionine dependent methylases: inhibition of indole N-methyltransferase by (5'-deoxyadenosyl)[3-(3-indolyl)prop-1-yl]methylsulfonium and (5'-deoxyadenosyl)[4-(3-indolyl)but-1-yl]methylsulfonium salts” (J Med Chem, 1983).)
